Reference: patent US20240228476A1, “INHIBITORS OF PROTEIN TYROSINE PHOSPHATASE, COMPOSITIONS, AND METHODS OF USE” (BRISTOL-MYERS SQUIBB COMPANY, priority 2022, published 2024)
pEC50, pIC50: −log10 of the molar value.

How the values were obtained:
B16-F10 cells = assay: Cell proliferation assay (CellTiter-Glo) in B16-F10 cells with IFN-gamma; format: cell-based; details: 120 h, mouse IFN-gamma 10 ng/mL, read-out: PTPN2 Prolif 5d B16F10 EC50
Description: B16-F10 cells (ATCC, Manassas, VA, #CRL-6475) were cultured in DMEM growth medium (ThermoFisher Scientific, Waltham, MA, #11995-040) supplemented with 10% heat inactivated FBS (ThermoFisher Scientific, #16140-071) and 1% pen/strep (ThermoFisher Scientific, #15140-122). The cells were seeded into two white opaque 384-well tissue culture treated microplates (PerkinElmer, Waltham, MA, #6007688) at a density of 100 cells/well in 20 uL total volume and incubated overnight at 37 C and 5% CO2. 30 nL of compounds dissolved in DMSO were then transferred from a source plate into target wells with the Echo650 acoustic liquid handler (Beckman Coulter, Indianapolis, IN). Negative control wells received 30 nL of DMSO only (0.15% final concentration). Plates were returned to the incubator for 1 hour and then cells treated with either 5 uL of growth medium or 5 uL of growth medium containing 50 ng/ml of recombinant mouse IFN-gamma protein (R&D Systems, Minneapolis, MN, #485-MI/CF, 10 ng/mL final concentration) using the Assist automated pipetting platform (INTEGRA Biosciences, Hudson, NH). Plates were incubated at 37 C for 4 days and cell proliferation assayed with the CellTiter-Glo reagent (Promega, Madison, WI, #G7573, 25 uL per well). […] Off-target compound mediated cytotoxicity was identified by checking for growth inhibition in the absence of IFNg.

PTPN2 [1] = target: T1, PTPN2 (Homo sapiens, UniProt P17706); assay: Phosphatase activity assay using DiFMUP as substrate; format: biochemical; set-up: purchased MilliporeSigma SRP5075; details: 10 mM DTT, PTPN2 0.15 nM, room temperature, read-out: PTPN2 BCHEM DIFMUP IC50
T1 sequence (P17706 1-415): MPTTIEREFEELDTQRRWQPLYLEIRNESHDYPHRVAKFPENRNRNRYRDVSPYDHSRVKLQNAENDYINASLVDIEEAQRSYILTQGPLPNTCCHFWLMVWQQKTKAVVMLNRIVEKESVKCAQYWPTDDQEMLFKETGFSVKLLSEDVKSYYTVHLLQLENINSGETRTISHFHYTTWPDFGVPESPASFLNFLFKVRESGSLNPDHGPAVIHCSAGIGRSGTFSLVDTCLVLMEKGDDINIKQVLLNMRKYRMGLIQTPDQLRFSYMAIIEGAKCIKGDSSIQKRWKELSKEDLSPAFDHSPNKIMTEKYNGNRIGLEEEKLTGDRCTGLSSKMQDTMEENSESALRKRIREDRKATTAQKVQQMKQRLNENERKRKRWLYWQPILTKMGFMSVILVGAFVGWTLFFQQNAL
Description: The PTPN2 biochemical assay was performed as follows, a 5× stock solution of human PTPN2 (SRP5075, MilliporeSigma, Burlington, MA) and a 1.25× stock solution of DiFMUP (D6567, ThermoFisher Scientific, Waltham, MA), were prepared in 1× reaction buffer consisting of 50 mM HEPES, pH 7.4, 1 mM EDTA, 150 mM NaCl, 0.2 mg/mL BSA, 100 U/mL catalase and 10 mM DTT. […] of the DiFMUP substrate solution, for a final concentration of […] DiFMUP substrate, was added to a Corning 3574 384-well, white, non-binding surface microtiter plate containing […] of serially diluted test compounds prepared in DMSO. The reactions were started with the addition of […] of the enzyme solution, for a final PTPN2 concentration of 0.15 nM, and monitored every 105 seconds for 60 minutes at λEX 360/λEM 460 in a BioTek Synergy HTX plate reader (Agilent Technologies, Santa Clara, CA) at room temperature. The initial linear portions of the progress curves were fit according to a linear equation to yield the slopes and converted to % inhibition based on a value of 100% activity for the no inhibitor treated control. IC50 values of each compound were obtained by fitting the % inhibition-compound concentration curves using Dotmatics software (Dotmatics, Bishops Stortford, Hertfordshire, England)
(§1) For IC50 data, High DDT concentration and/or DiFMUP substrate assays were used; a skilled artisan may use either assay.

PTPN2 [2] = target: T1, PTPN2; assay: PTPN2 biochemical assay (PhosphoSens, substrate AQT0264); details: PhosphoSens substrate AQT0264 20 μM, room temperature; read-out: PTPN2 BCHEM IC50
Description: A PhosphoSens® kinase assay was performed as described by the vendor (AssayQuant Technologies, Marlborough, MA). Briefly, 1000× solutions of compounds were prepared in DMSO via serial dilution of the 10 mM DMSO stocks using 3-fold intervals in a 384-well reagent plate. 50 nL of the compound dilution series was then added to the corresponding wells of a 384-well assay plate. 40 mL of 1.25× substrate (AQT0264) in 1× assay buffer (50 mM HEPES pH 7.5, 500 μM EGTA, […] MgCl2, 0.01% Brij-35, 1% Glycerol, 1 mM DTT, and 0.2 mg/mL BSA) was transferred to each well of the assay plate to achieve a final substrate concentration of 20 μM. Finally, […] of 5×PTPN2 enzyme stock was added to each well of the assay plate for a final enzyme concentration of […]. Reaction progress curves were collected by sampling fluorescence intensity at the excitation wavelength 360 nm (λex360) and emission wavelength 480 nm (λem480) every 71 seconds for one hour using a Synergy H4 plate reader (BioTek Instruments/Agilent Technologies, Winooski, VT) at room temperature.
as §1

phospho-STAT1 (Tyr701) = assay: Phospho-STAT1 (Tyr701) HTRF assay in B16-F10 cells; format: cell-based; details: mouse IFN-gamma 100 ng/ml, 1 hour, read-out: pSTAT1 HTRF B16 EC50
Description: B16-F10 cells (ATCC, Manassas, VA, #CRL-6475) were cultured in DMEM growth medium (ThermoFisher Scientific, Waltham, MA, #11995-040) supplemented with 10% heat inactivated FBS (ThermoFisher Scientific, #16140-071) and 1% pen/strep (ThermoFisher Scientific, #15140-122). The cells were seeded into a white opaque 384-well tissue culture treated microplate (PerkinElmer, Waltham, MA, #6007688) at a density of 10,000 cells/well in 20 uL total volume and incubated overnight at 37 C and 5% CO2. 30 nL of compounds dissolved in DMSO were then transferred from a source plate into target wells with the Echo650 acoustic liquid handler (Beckman Coulter, Indianapolis, IN). Negative control wells received 30 nL of DMSO only (0.15% final concentration). Plates were returned to the incubator for 1 hour and then cells treated with either 5 uL of growth medium or 5 uL of growth medium containing 500 ng/ml of recombinant mouse IFN-gamma protein (R&D Systems, Minneapolis, MN, #485-MI/CF, 100 ng/ml final concentration) using the Assist automated pipetting platform (INTEGRA Biosciences, Hudson, NH). Plates were incubated at 37 C for 1 hour and assayed for phosphorylated STAT1 protein levels with the phospho-STAT1 (Tyr701) HTRF kit (Cisbio, Bedford, MA, #63ADK026PEH) according to manufacturer's instructions. HTRF signal intensity was collected with the En Vision 2105 plate reader (PerkinElmer) 24 hours later and analyzed with the Dotmatics software platform to calculate compound IC50 values.

Row | Compound | pEC50 (B16-F10 cells) | pIC50 (PTPN2 [1]) | pIC50 (PTPN2 [2]) | pEC50 (phospho-STAT1 (Tyr701))
1 | N#Cc1cnc(NCc2cc(O)c(N3CC(=O)NS3(=O)=O)c(F)c2)nc1 [EXAMPLE 9, 2-[[3-fluoro-5-hydroxy-4-(1,1,4-trioxo-1,2,5-thiadiazolidin-2-yl)phenyl]methylamino]pyrimidine-5-carbonitrile] | 5.89 | 6.68 | 7.52 | 6.31
2 | O=C1CN(c2c(O)cc(CNc3ccc(C4CC4)nc3)cc2F)S(=O)(=O)N1 [EXAMPLE 10, 5-[4-[[(6-cyclopropyl-3-pyridyl)amino]methyl]-2-fluoro-6-hydroxy-phenyl]-1,1-dioxo-1,2,5-thiadiazolidin-3-one] | 6.39 | 7.00 | 8.00 | 6.19
3 | O=C1CN(c2c(O)cc(CNc3cncc(-c4ccccc4)c3)cc2F)S(=O)(=O)N1 [EXAMPLE 12, 5-[2-fluoro-6-hydroxy-4-[[(5-phenyl-3-pyridyl)amino]methyl]phenyl]-1,1-dioxo-1,2,5-thiadiazolidin-3-one] | < 4.82 | 7.00 | 7.70 | < 4.82
4 | CC(C)c1cncc(NCc2cc(O)c(N3CC(=O)NS3(=O)=O)c(F)c2)c1 [EXAMPLE 13, 5-[2-fluoro-6-hydroxy-4-[[(5-isopropyl-3-pyridyl)amino]methyl]phenyl]-1,1-dioxo-1,2,5-thiadiazolidin-3-one] | 5.86 | 7.30 | 8.00 | 6.03
5 | CCN(Cc1cc(O)c(N2CC(=O)NS2(=O)=O)c(F)c1)c1nc(C)cc(-c2ccccc2C#N)n1 [EXAMPLE 14, 2-[2-[ethyl-[[3-fluoro-5-hydroxy-4-(1,1,4-trioxo-1,2,5-thiadiazolidin-2-yl)phenyl]methyl]amino]-6-methyl-pyrimidin-4-yl]benzonitrile] | < 4.82 | 6.31 | 6.68 | < 4.82
6 | Cc1c(NCc2cc(O)c(N3CC(=O)NS3(=O)=O)c(F)c2)ccnc1-c1ccc(C(C)(C)C)cc1 [EXAMPLE 15, 5-[4-[[[2-(4-tert-butylphenyl)-3-methyl-4-pyridyl]amino]methyl]-2-fluoro-6-hydroxy-phenyl]-1,1-dioxo-1,2,5-thiadiazolidin-3-one] | < 4.82 | 7.52 | 7.52 | < 4.82
7 | Cc1cncc(NCc2cc(O)c(N3CC(=O)NS3(=O)=O)c(F)c2)n1 [EXAMPLE 16, 5-[2-fluoro-6-hydroxy-4-[[(6-methylpyrazin-2-yl)amino]methyl]phenyl]-1,1-dioxo-1,2,5-thiadiazolidin-3-one] | 5.76 | 7.52 | 9.00 | 6.16
8 | Cc1cc(NCc2cc(O)c(N3CC(=O)NS3(=O)=O)c(F)c2)nc(C)n1 [EXAMPLE 17, 5-[4-[[(2,6-dimethylpyrimidin-4-yl)amino]methyl]-2-fluoro-6-hydroxy-phenyl]-1,1-dioxo-1,2,5-thiadiazolidin-3-one] | 5.66 | 7.30 | 7.70 | 5.73
9 | Cc1cnc(C)c(NCc2cc(O)c(N3CC(=O)NS3(=O)=O)c(F)c2)n1 [EXAMPLE 18, 5-[4-[[(3,6-dimethylpyrazin-2-yl)amino]methyl]-2-fluoro-6-hydroxy-phenyl]-1,1-dioxo-1,2,5-thiadiazolidin-3-one] | < 4.82 | 6.96 | 7.30 | < 4.82
10 | Cc1ncc(NCc2cc(O)c(N3CC(=O)NS3(=O)=O)c(F)c2)nc1C [EXAMPLE 19, 5-[4-[[(5,6-dimethylpyrazin-2-yl)amino]methyl]-2-fluoro-6-hydroxy-phenyl]-1,1-dioxo-1,2,5-thiadiazolidin-3-one] | 5.91 | 7.30 | 8.00 | 6.43
11 | COc1ncc(C)nc1NCc1cc(O)c(N2CC(=O)NS2(=O)=O)c(F)c1 [EXAMPLE 20, 5-[2-fluoro-6-hydroxy-4-[[(3-methoxy-6-methyl-pyrazin-2-yl)amino]methyl]phenyl]-1,1-dioxo-1,2,5-thiadiazolidin-3-one] | < 4.82 | 4.95 | 7.15 | < 4.82
12 | COc1ncc(C)c(NCc2cc(O)c(N3CC(=O)NS3(=O)=O)c(F)c2)n1 [EXAMPLE 22, 5-[2-fluoro-6-hydroxy-4-[[(2-methoxy-5-methyl-pyrimidin-4-yl)amino]methyl]phenyl]-1,1-dioxo-1,2,5-thiadiazolidin-3-one] | 4.96 | 7.30 | 7.70 | 5.17
13 | COc1cncc(NCc2cc(O)c(N3CC(=O)NS3(=O)=O)c(F)c2)n1 [EXAMPLE 23, 5-[2-fluoro-6-hydroxy-4-[[(6-methoxypyrazin-2-yl)amino]methyl]phenyl]-1,1-dioxo-1,2,5-thiadiazolidin-3-one] | 5.81 | 7.70 | 8.00 | 5.72
14 | Cc1nccc(NCc2cc(O)c(N3CC(=O)NS3(=O)=O)c(F)c2)n1 [EXAMPLE 24, 5-[2-fluoro-6-hydroxy-4-[[(2-methylpyrimidin-4-yl)amino]methyl]phenyl]-1,1-dioxo-1,2,5-thiadiazolidin-3-one] | 5.37 | 7.52 | 7.52 | 6.10
